This assay deals with T1, angiotensin converting enzyme (Oryctolagus cuniculus, UniProt P12822).
T1 construct: Rabbit lung acetone powder was extracted with 10 volumes of 50 mM sodium borate buffer; from tissue; host or cells: rabbit lung (acetone powder, borate buffer extract, 40,000 x g supernatant)
T1 sequence (P12822 34-1310): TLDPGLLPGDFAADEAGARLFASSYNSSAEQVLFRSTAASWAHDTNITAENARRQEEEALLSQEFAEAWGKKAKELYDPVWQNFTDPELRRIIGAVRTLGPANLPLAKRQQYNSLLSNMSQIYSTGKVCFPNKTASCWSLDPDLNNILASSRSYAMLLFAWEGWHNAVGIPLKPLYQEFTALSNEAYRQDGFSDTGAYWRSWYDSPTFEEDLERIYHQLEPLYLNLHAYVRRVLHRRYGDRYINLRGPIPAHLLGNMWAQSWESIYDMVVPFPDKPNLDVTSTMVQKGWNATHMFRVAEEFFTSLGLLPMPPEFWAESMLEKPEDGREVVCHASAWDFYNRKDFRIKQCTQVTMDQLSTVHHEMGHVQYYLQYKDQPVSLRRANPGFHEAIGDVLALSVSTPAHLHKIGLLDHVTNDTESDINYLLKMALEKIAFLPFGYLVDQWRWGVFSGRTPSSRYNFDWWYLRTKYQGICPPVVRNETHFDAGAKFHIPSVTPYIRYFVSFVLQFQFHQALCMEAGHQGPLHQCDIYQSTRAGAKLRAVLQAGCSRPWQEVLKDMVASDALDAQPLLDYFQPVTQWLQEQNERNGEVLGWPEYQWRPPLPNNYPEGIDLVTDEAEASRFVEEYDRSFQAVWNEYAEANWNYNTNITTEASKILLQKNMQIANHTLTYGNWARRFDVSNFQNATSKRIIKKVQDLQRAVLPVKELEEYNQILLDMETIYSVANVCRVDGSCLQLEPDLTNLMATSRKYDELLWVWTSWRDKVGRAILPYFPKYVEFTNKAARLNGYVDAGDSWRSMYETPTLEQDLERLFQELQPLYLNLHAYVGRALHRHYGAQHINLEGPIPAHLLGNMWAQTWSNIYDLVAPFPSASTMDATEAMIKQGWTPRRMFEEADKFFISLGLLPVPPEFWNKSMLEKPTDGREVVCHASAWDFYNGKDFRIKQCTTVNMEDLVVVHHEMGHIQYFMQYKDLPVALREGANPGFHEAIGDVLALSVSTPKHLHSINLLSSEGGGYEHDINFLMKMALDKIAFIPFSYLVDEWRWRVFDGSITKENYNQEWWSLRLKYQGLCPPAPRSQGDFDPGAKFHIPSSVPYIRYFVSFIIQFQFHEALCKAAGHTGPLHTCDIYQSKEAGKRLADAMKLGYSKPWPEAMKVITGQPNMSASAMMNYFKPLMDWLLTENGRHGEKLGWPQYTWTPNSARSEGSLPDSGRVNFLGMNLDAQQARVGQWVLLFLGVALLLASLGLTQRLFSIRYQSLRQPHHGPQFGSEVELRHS
The experiment in a line: Inhibitory activity of angiotensin converting enzyme (rabbit lung acetone powder extract, HHL substrate, modified Cushman method). The format is biochemical. To be noted: preincubated 30 minutes, reacted with HHL at 37° C. for 30 minutes; for inhibition at 0.0002 µM: inhibitor concentration 2 × 10^-4 μM; for inhibition at 20 pM: inhibitor concentration 2 × 10^-5 μM. The procedure:
The inhibitory activity of angiotensin converting enzyme for the compounds of this invention prepared by above examples was determined as follows;
The inhibitory activity was determined by using a modification of the method of Cushman, et al. [Biochemical Pharmacology, 20, 1637(1971)] Rabbit lung acetone powder was extracted with 10 volumes of 50 mM sodium borate buffer solution(pH 8.3) by homogenization at 4° C. and centrifuged for 40 minutes at 40,000 ×g.
The supernatant which contained angiotensin converting enzyme was used for ACE assay. Hippuryl-L-histidyl-L-leucine(HHL) was used as a substrate of enzymatic reaction and the reaction was determined in 13×100 mm of test tube.
The assay mixture (total volume, 0.25 ml) consisted of 50 mM sodium borate buffer (pH 8.3), 300 mM sodium chloride, and 5 mM HHL(pH 8.3), and they were reacted by addition of 0~10 mU of rabbit lung acetone powder extract for 30 minutes at 37° C.
The volume of enzyme extract was 0.15 ml or below and the reaction solution was preincubated at 37° C. for 30 minutes without the substrate and after adding HHL reacted for 30 minutes, the reaction was terminated by addition of 0.25 ml of 1N-HCl aqueous solution.
In the case of blank assay, hydrochloric acid was added before adding the enzyme extract. Hippuric acid was extracted with 1.5 ml of ethyl acetate which was separated by centrifuging at 3,000 rpm for 10 minutes. 1.0ml of ethyl acetate layer was transferred into the test tube and evaporated at 90° C. for 1 hour on temp-block.
Hippuric acid was dissolved in 1.0 ml of 50 mM sodium borate buffer (pH 8.3) and qualified from its absorbance at 228 nm. The final concentration of inhibitor was adjusted to 2×10^-4, 2×10^-5 μM with sodium borate buffer solution(pH 8.3) and reaction solution without the substrate was preincubated for 30 minutes and after adding the substrate, it was reacted at 37° C. for 30 minutes and terminated with 1N-HCl.
The synthesized inhibitors with non-water soluble property were dissolved by ultrasonic treatment.

SMILES strings stand for the structures.

Consider `CCCCCCCCCCCCCCCCCCOCC(COP(=O)(O)SC[C@@H](C)C(=O)N1CCC[C@H]1C(=O)OCc1ccc([N+](=O)[O-])cc1)OC(=O)CCCCCCCCCCCCCCC` (mixture of isomers) [Compound 1, rac-1-O-octadecyl-2-O-palmitoyl-glyceryl-3-phosphorylcaptopril-p-nitrobenzyl ester], for which 0.0002 µM produced 77% inhibition and the inhibition at 20 pM was determined as 39%.

The molecule `CCCCCCCCCCCCCCCCCCOCC(COP(=O)(O)SC[C@@H](C)C(=O)N1CCC[C@H]1C(=O)O)OC(=O)CCCCCCCCCCCCCCC` (mixture of isomers) [Compound 2, rac-1-O-octadecyl-2-O-palmitoyl-glyceryl-3-phosphoryl captopril] registered an inhibition at 0.0002 µM of 97% and an inhibition at 20 pM of 80%.

With `CCCCCCCCCCCCCCCCCCOCC(COP(=O)(O)SC[C@@H](C)C(=O)N1CCC[C@H]1C(=O)OCc1ccc([N+](=O)[O-])cc1)OC(C)=O` (mixture of isomers) [Compound 3, rac-1-O-octadecyl-2-O-acetyl-glyceryl-3-phosphoryl captopril-p-nitrobenzyl ester], at 0.0002 µM the inhibition was 85% and the inhibition at 20 pM is 60%.

On to `CCCCCCCCCCCCCCCCCCOCC(COP(=O)(O)SC[C@@H](C)C(=O)N1CCC[C@H]1C(=O)O)OC(C)=O` (mixture of isomers) [Compound 4, rac-1-O-octadecyl-2-O-acetyl-glyceryl-3-phosphoryl captopril], for which 0.0002 µM produced 98% inhibition and 20 pM produced 98% inhibition.

In turn, `CCCCCCCCCCCCCCCCCCSCC(COP(=O)(O)SC[C@@H](C)C(=O)N1CCC[C@H]1C(=O)OCc1ccc([N+](=O)[O-])cc1)OC(=O)CCCCCCCCCCCCCCC` (mixture of isomers) [Compound 5, rac-1-S-octadecyl-2-O-palmitoyl-thioglyceryl-3-phosphoryl captopril-p-nitrobenzyl ester] returned an inhibition at 0.0002 µM of 31% and an inhibition at 20 pM of 4%.

As for `CCCCCCCCCCCCCCCCCCSCC(COP(=O)(O)SC[C@@H](C)C(=O)N1CCC[C@H]1C(=O)O)OC(=O)CCCCCCCCCCCCCCC` (mixture of isomers) [Compound 6, rac-1-S-octadecyl-2-O-palmitoyl-thioglyceryl-3-phosphoryl captopril], the inhibition at 0.0002 µM worked out at 92% and the inhibition at 20 pM turned out to be 70%.

In turn, `CCCCCCCCCCCCCCCCCCSCC(COP(=O)(O)SC[C@@H](C)C(=O)N1CCC[C@H]1C(=O)OCc1ccc([N+](=O)[O-])cc1)OC(C)=O` (mixture of isomers) [Compound 7, rac-1-S-octadecyl-2-O-acetyl-thioglyceryl-3-phosphoryl captopril-p-nitrobenzyl ester] had an inhibition at 0.0002 µM of 78% and an inhibition at 20 pM of 43%.

For the molecule `CCCCCCCCCCCCCCCCCCSCC(COP(=O)(O)SC[C@@H](C)C(=O)N1CCC[C@H]1C(=O)O)OC(C)=O` (mixture of isomers) [Compound 8, rac-1-S-octadecyl-2-O-acetyl-thioglyceryl-3-phosphoryl captopril], the inhibition at 0.0002 µM turned out to be 90% and at 20 pM the inhibition was 80%.

The term inhibition denotes the relative decrease from the control value, in per cent. High values mean a strong effect, low ones a weak effect.

The record behind these values is patent publication US5358961A, “Pyrrolidine derivatives” (Jin Ro Limited, priority 1991, dated 1994).
